Test results taken from patent publication US6818767B2, “Quinoline derivatives” (Hoffmann-La Roche Inc., priority 2001, dated 2004).

Molecular target: T1, mouse NPY5-receptor (mNPY5) (Mus musculus, UniProt O70342)
T1 construct: The full-length cDNA encoding the mouse NPY5 (mNPY5) receptor was amplified from mouse brain cDNA; expressed in transfected cells; membrane preparation
T1 sequence (O70342 1-466): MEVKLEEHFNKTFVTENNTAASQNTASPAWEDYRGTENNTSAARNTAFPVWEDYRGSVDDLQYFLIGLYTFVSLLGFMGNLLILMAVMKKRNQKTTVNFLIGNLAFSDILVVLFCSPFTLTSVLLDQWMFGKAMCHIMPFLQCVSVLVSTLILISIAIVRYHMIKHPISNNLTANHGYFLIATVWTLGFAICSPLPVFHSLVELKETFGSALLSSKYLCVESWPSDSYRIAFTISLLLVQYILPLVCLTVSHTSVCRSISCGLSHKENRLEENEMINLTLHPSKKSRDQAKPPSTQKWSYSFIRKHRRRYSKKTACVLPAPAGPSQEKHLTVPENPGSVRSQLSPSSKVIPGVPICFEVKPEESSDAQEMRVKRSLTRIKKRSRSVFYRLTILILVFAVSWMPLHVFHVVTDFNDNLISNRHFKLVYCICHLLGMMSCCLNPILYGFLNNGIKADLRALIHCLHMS
Experiment: Radioligand competition binding
Conditions: displacement of 100 pM [125I]labelled peptide YY, membranes of HEK293 cells expressing recombinant mNPY5, 1 h at 22° C.; read-out: NPY5-R (mouse) IC50
From the text: The full-length cDNA encoding the mouse NPY5 (mNPY5) receptor was amplified from mouse brain cDNA using specific primers, designed based on the published sequence, and Pfu DNA-Polymerase (Stratagene). The amplification product was subcloned into the mammalian expression vector pcDNA3 using Eco RI and XhoI restriction sites. Positive clones were sequenced and one clone, encoding the published sequence was selected for generation of stable cell clones.
Human embryonic kidney 293 (HEK293) cells were transfected with 10 μg mNPY5 DNA using the lipofectamine reagent (Gibco BRL) according to the manufacturer's instruction. Two days after transfection, geneticin selection (1 mg/ml) was initiated and several stable clones were isolated. One clone was further used for pharmacological characterization.
Human embryonic kidney 293 cells (HEK293), expressing recombinant mouse NPY5-receptor (mNPY5) were broken by three freeze/thawing cycles in hypotonic Tris buffer (5 mM, pH 7.4, 1 mM MgCl2), homogenized and centrifuged at 72,000×g for 15 min. The pellet was washed twice with 75 mM Tris buffer, pH 7.4, containing 25 mM MgCl2 and 250 mM sucrose, 0.1 mM phenylmethylsulfonylfluoride and 0.1 mM 1,10-pheneanthrolin, resuspended in the same buffer and stored in aliquots at −80° C. Protein was determined according to the method of Lowry using bovine serum albumine (BSA) as a standard. […]

Row | IC50 | SMILES
1 | 27 nM | Cc1cc(N2CCCC2)c2ccc(OCC3CC3)cc2n1 [Example 5, 7-cyclopropylmethoxy-2-methyl-4-pyrrolidin-1-yl-quinoline]
2 | 9.9 nM | CCCCc1cc2c(N3CCCC3)ccnc2cc1O [Example 34, 6-butyl-4-pyrrolidin-1-yl-quinolin-7-ol]
